Data on 5 compounds can be found in paper PMC9860125 (The Journal of Biological Chemistry, 2022).

The target of data set [1] is T1, EmrE (Escherichia coli, UniProt P23895). The data set can be described thus: SSME transport with purified EmrE in proteoliposomes, empty liposome control. The arrangement: WT-EmrE in POPC proteoliposomes. It counts as biochemical.
In data set [2] the target is T1, EmrE. The data set can be described thus: ITC (pH […] ºC); NMR pH titration; ZZ-exchange NMR. Format: binding. Further details: WT EmrE, antiparallel homodimer, in DMPC/DHPC isotropic bicelles.
Data set [3] addresses Glu14 (UniProt position 14, GAILAEVIGTT). The data set can be described thus: NMR. Conditions: 45 °C; not stated (no added salt beyond the buffer components); 20 mM sodium acetate, 50 mM Mes, 50 mM Mops, 100 mM bicine, 2 mM TCEP, 0.01% sodium azide; Saturated with 2H-dTPP2+ (at least 4x the EmrE monomer concentration). Alternating access is in slow exchange, and the substrate is associated asymmetrically with subunit A.

T1 sequence (P23895 whole entry): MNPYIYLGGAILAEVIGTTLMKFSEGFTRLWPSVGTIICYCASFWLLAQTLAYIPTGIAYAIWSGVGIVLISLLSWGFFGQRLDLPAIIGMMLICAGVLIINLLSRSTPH

Turning to `C[n+]1ccc(-c2cc[n+](C)cc2)cc1` [MV2+, methyl viologen], the “SSME transport with purified EmrE in proteoliposomes, empty liposome control” value in data set [1] is reported as “Addition of the substrate gradient resulted in increased net flux compared with drug-free conditions, consistent with net symport”.

In the case of `c1ccc([P+](c2ccccc2)(c2ccccc2)c2ccc([P+](c3ccccc3)(c3ccccc3)c3ccccc3)cc2)cc1` [dTPP2+, 1,4-phenylenebis(triphenylphosphonium) bromide], the dissociation constant (Kd) – broadly, a measure of binding affinity in units of concentration – in data set [2] worked out at 8.1 ± 0.4 µM.

For “EmrE (small multidrug resistance transporter) (Escherichia coli)”, in data set [3], the pKa (usually the pH at which an ionisable group is half protonated) is 6.2 ± 0.1.

In turn, `c1ccc(C(c2ccccc2)(c2ccccc2)c2ccc([P+](c3ccccc3)(c3ccccc3)c3ccccc3)cc2)cc1` [dTPP+, triphenyl[4-(triphenylmethyl)phenyl]phosphonium iodide] gave a Kd in data set [2] of 9.3 ± 0.3 µM. Regarding `CC[n+]1c(-c2ccccc2)c2cc(N)ccc2c2ccc(N)cc21` [Eth+, ethidium], the “SSME transport with purified EmrE in proteoliposomes, empty liposome control” value in data set [1] is recorded as “observed signal under these conditions is transport dependent on the protein as empty controls show minimal signal”.
